Results on one compound are retold here after BindingDB's records for patent US10065961 (Ogeda, 2018).

The experiment addresses T1, Neuromedin-K receptor (Homo sapiens, UniProt P29371).
T1 sequence (P29371 whole entry): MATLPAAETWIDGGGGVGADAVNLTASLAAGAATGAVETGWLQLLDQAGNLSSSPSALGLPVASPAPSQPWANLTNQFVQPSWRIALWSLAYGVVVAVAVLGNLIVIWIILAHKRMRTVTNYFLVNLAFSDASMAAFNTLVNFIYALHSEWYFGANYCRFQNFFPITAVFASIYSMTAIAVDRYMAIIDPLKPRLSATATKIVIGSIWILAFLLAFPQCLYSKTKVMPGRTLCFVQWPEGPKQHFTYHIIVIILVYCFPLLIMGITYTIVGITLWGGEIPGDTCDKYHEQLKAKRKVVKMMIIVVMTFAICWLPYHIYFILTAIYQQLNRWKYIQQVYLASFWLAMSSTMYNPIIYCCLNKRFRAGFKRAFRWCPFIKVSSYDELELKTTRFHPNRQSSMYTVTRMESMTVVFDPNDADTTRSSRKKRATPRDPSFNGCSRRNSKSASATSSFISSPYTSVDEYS
As to the kind of experiment: Aequorin Assay with Human NK-3 Receptor.

Protocol: The antagonist activity of compounds of the invention is measured following pre-incubation (3 minutes) of the compound with the cells, followed by addition of the reference agonist (NKA) at a final concentration equivalent to the EC80 (3 nM) and recording of emitted light (FDSS 6000 Hamamatsu) over the subsequent 90-second period. The intensity of the emitted light is integrated using the reader software.

`Cc1coc(-c2nnc3n2CCN[C@@H]3C)n1` [US10065961, Compound 27]: the IC50 was determined as 51 nM.

Broadly, the IC50 is the point on the concentration scale where inhibition reaches its midpoint. Lower therefore signals greater potency.
